This test deals with human prostate. As to the kind of experiment: Contractile responses of human prostate. Particulars: antagonist affinity estimate against (−)-noradrenaline contractions of human prostatic tissue strips; single antagonist concentration, incubated 2 hours. As to the method: Contractile Responses of Human Prostate
Prostatic tissue was cut into longitudinal strips (approximately 3×2×10 mm) and suspended in organ baths under a resting tension of 1 g in Krebs Ringer bicarbonate of the following composition (mM): NaCl (119), KCl (4.7), CaCl2 (2.5), KH2PO4 (1.2), MgSO4 (1.2), NaHCO3 (25), glucose (11), and gassed with 95% O2/5% CO2. The solution also contained 10 mM cocaine and 10 mM corticosterone. Tissues were exposed to a sensitising dose of (−)-noradrenaline ([…]) and washed over a 45 minute period. Isometric contractions were obtained in response to cumulative additions of (−)-noradrenaline to obtain control curves in all tissues. A further curve was then generated in the presence or absence of antagonist (incubated for 2 hours). Antagonist affinity estimates (pA2) were determined using a single concentration of competing antagonist, pA2=−log [A]/(DR-1) where the dose ratio (DR), relative to corresponding controls, was produced by a single concentration of antagonist [A], assuming competitive antagonism and Schild regression close to unity.

Take `COc1cc2nc(N3CCCN(C(=O)N4C[C@H](O)[C@@H](O)C4)CC3)nc(N)c2c(-c2ccccc2)c1OC.Cl` [Example 17, 4-Amino-6,7-dimethoxy-2-{4-[1-(3S,4S-dihydroxypyrrolidine)carbonyl]-1,4-diazepan-1-yl}-5-phenylquinazoline hydrochloride]: the pA2 value was 8.5.

The values above are taken from patent US6750214B2, “Quinoline and quinazoline compounds useful in therapy” (priority 1995, dated 2004).
